System: T1, GABAARs
T1 construct: rows headed: effect on GABAAR-currents; effect on GABAAR-currents; other: zolpidem 0.3 μM, DGCs of EtOH group
Test: Whole-cell patch-clamp, DGCs in hippocampal slices 48 hr after in vivo treatment
Assay type: cell-based, rat
Settings: zolpidem 0.3 μM
Protocol: Transverse slices (400 μm) of dorsal hippocampus were obtained with a Vibratome (VT 100, Technical Products International, St. Louis, Mo.) and standard techniques known in the art. Slices were continuously perfused with artificial cerebrospinal fluid (ACSF). See Liang, J., et al. (2007) J Neurosci 27:12367-12377.
Whole-cell patch-clamp recordings were obtained at 34±0.5° C. from cells located in the DG layer at a holding potential of −70 mV, during perfusion with artificial cerebrospinal fluid (ACSF, 125 mM NaCl, 2.5 mM KCl, 2 mM CaCl2, 2 mM MgCl2, 26 mM NaHCO3, and 10 mM D-glucose). The ACSF was continuously bubbled with 95% O2-5% CO2 to ensure adequate oxygenation of slices and a pH of 7.4. Patch electrodes were pulled from thin-wall borosilicate glass pipettes with resistances of 7.5-9 MΩ and were filled with pipette solution (i.e. 137 mM CsCl, 2 mM MgCl2, 1 mM CaCl2, 11 mM EGTA, 10 mM HEPES and 3 mM ATP, pH adjusted to 7.30 with CsOH). Signals were recorded in voltage-clamp mode with a […] amplifier (Molecular Devices, Sunnyvale, Calif.). Whole cell access resistances were in the range of <25 MΩ before electrical compensation by about 70%. During voltage-clamp recordings, access resistance was monitored by measuring the size of the capacitative transient in response to a 5 mV step command and the data were abandoned if changes >20% were encountered. At least 10 min was allowed for equilibration of the pipette solution with the intracellular milieu before commencing mIPSC recordings. Intracellular signal was low-pass filtered at 3 kHz and data were acquired with Digidata 1440A and software CLAMPEX 10 (Molecular Devices) at a sampling frequency of 20 kHz.
Pharmacologically-isolated GABAAR-mediated mIPSCs were recorded as previously described (Liang (2007) and Shen (2011)). […] Data were analyzed using the Clampfit (Version 9.0, Molecular Devices) and the MiniAnalysis Program (versions 6.0.7, Synaptosoft, Decatur, Ga.).
The MiniAnalysis program (Synaptosoft, Decatur, Ga.) was used to analyze mIPSCs. Itonic is the averaged baseline currents of a given recording period. Itonic amplitude was calculated as the difference between the holding currents measured before and after picrotoxin (100 μM) or bicuculline (10 μM). See Wei, W., et al. (2004) J Neurosci 24, 8379-8382; Liang (2007); and Shen (2011). Briefly, the recordings were low-pass filtered off-line (Clampfit software) at 2 kHz. The mIPSCs were detected (Mini Analysis Program, version 6.0.7) with threshold criteria of 8 pA amplitude and 20 pA*ms charge transfer. The frequency of mIPSCs was determined from all automatically detected events in a given 100 s recording period. For kinetic analysis, only single event mIPSCs with a stable baseline, sharp rising phase (10 to 90% rise time), and exponential decay were chosen during visual inspection of the recording trace. Double and multiple peak mIPSCs were excluded. At least 100 individual mIPSC events were recorded under each experimental condition. The mIPSC kinetics was obtained from analysis of the averaged chosen single events aligned with half rise time in each cell. Decay time constants were obtained by fitting a double exponential to the falling phase of the averaged mIPSCs. Itonic magnitudes were obtained from the averaged baseline current of a given recording period. Itonic amplitude was calculated as the difference between the holding currents measured before and after the application of picrotoxin (50 μM) or bicuculline (10 μM). See Liang J et al (2007); Shen (2011); Hamann (2002); and Mangan P S, et al. (2005) Mol Pharmacol 67(3):775-788. The investigator performing the recordings and mIPSC analysis was blind to the treatment (vehicle, EtOH, E+D, or D) that the rats received.
After 48 hr withdrawal, whole-cell GABAAR-mediated currents were recorded on DGCs in hippocampal slices. In the vehicle group, bath application of EtOH (60 mM) enhanced Itonic from 28.8±3.1 to 62.1±3.3 pA (FIG. 13, panels A, G). […]

Cc1ccc(-c2nc3ccc(C)cn3c2CC(=O)N(C)C)cc1 [Zolpidem, zolpidem, reference compound]
effect on GABAAR-currents (DGCs of DHM group as in vehicle group): potentiation | effect on GABAAR-currents (DGCs of EtOH group): did not affect GABAAR-currents
